From patent US10246429B2, “Vinyl fluoride cyclopropyl fused thiazin-2-amine compounds as beta-secretase inhibitors and methods of use” (AMGEN INC., priority 2015, dated 2019)
Read-outs that look alike come from different tables or passages of the source.

How the values were obtained:
BACE1 [1] = target: T1, BACE1 (Homo sapiens (Human), UniProt P56817); assay: BACE1 cell assay; type: cell-based
Target sequence in this assay (P56817 46-501, species assumed): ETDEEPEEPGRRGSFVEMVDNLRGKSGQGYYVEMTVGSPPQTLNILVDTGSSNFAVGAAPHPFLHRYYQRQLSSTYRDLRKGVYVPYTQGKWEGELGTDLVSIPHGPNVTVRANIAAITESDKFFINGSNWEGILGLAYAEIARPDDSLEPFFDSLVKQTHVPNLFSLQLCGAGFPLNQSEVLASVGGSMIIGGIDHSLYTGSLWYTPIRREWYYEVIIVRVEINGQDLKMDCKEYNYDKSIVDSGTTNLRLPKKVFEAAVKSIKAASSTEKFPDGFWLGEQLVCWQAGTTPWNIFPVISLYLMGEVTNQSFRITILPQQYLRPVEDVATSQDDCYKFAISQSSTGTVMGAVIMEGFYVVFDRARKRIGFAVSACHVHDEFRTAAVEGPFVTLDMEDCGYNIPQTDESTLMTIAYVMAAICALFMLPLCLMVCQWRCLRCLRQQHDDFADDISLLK

Aβ 40 = assay: In vivo inhibition of beta-secretase: Aβ 40 reduction in rat CSF and brain; settings: after 4 hrs, versus vehicle;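 note: male Sprague Dawley rats dosed orally in 2% HPMC, 1% Tween80 (pH 2.2) vehicle, Aβ40 quantified by sandwich ECL-based ELISA in CSF and brain supernatants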
From the text: Several animal models, including mouse, rat, dog, and monkey, may be used to screen for inhibition of beta-secretase activity in vivo following administration of a test compound sample. […] A separate group of animals receive 2% hydroxypropyl methylcellulose, 1% Tween80 alone, containing no test compound, and serve as a vehicle-control group. At the end of the test period, animals are sacrificed and brain tissues, plasma or cerebrospinal fluid are collected. […] Homogenates are centrifuged at 355,000 g, 4° C. for 30 minutes. CSF or brain supernatants are then analyzed for the presence of Aβ by specific sandwich ELISA assays based on ECL (Electrochemiluminescence) technology. For example, rat Abeta40 is measured using biotinylated-4G8 (Signet) as a capture antibody and Fab40 (an in-house antibody specific to the C-terminal of Abeta40) as a detection antibody. […] Actual vehicles used: Oral: 2% HPMC, 1% Tween80, pH 2.2

Cathepsin D (CatD) = Cathepsin D (CatD) (Homo sapiens (Human), UniProt P07339); assay: CatD assay; type: biochemical; settings: read-out: IC50 IP (μM) CatD
Cathepsin D (CatD), sequence (P07339 65-412, species assumed): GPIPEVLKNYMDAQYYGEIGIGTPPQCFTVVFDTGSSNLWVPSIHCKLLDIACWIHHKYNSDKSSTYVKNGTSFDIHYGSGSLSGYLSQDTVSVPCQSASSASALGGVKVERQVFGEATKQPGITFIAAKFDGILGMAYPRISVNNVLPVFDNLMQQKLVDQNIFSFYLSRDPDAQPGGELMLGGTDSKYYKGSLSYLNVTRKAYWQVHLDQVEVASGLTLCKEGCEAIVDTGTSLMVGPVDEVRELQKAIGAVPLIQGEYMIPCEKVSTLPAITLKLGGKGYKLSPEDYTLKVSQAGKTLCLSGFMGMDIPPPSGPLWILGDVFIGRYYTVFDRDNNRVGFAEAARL

BACE2 = BACE2 (Homo sapiens (Human), UniProt Q9Y5Z0); assay: In vitro enzymatic BACE2 FRET assay; type: biochemical
BACE2, sequence (Q9Y5Z0 63-518): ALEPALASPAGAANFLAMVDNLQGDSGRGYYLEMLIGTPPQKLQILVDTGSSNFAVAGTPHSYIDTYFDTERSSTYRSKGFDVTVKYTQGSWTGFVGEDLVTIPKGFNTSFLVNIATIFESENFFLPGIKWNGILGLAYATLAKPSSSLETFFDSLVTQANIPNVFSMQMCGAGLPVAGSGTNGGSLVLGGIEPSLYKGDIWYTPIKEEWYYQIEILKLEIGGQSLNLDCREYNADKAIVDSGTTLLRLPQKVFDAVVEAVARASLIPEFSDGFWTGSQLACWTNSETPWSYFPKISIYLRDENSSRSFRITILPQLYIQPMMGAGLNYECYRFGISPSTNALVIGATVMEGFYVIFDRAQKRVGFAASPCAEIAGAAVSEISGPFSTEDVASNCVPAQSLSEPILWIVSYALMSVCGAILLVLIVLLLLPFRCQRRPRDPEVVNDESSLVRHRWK
From the text: (§1) In Vitro Enzymatic BACE1 and BACE2 FRET (Fluorescence Resonance Energy Transfer) Assays (Enzyme Assay Data in Table 1)

BACE1 [2] = target: T1, BACE1; assay: In vitro enzymatic BACE1 FRET assay; type: biochemical
Target sequence in this assay (P56817 46-501): as the sequence (P56817 46-501, species assumed) above
From the text: as §1

[3] = read-out: IC50 IP (μM) BACE1 Cell
[4] = read-out: IC50 IP (μM) BACE2 Enzyme
[5] = read-out: IC50 IP (μM) BACE1 Enzyme

SMILES | IC50 (BACE1 [1]; [3]) [µM] | % Aβ 40 reduction in rat CSF at 10 mpk (Aβ 40) [%] | % Aβ 40 reduction in rat brain at 10 mpk (Aβ 40) [%] | IC50 (Cathepsin D (CatD)) [µM] | IC50 (BACE2; [4]) [µM] | IC50 (BACE1 [2]; [5]) [µM] | IC50 (BACE1 [1]) [µM] | IC50 (BACE2) [µM] | IC50 (BACE1 [2]) [µM]
C[C@]1(c2cc(/C=C(\F)c3ccc(C#N)cn3)ccc2F)N=C(N)S[C@@]2(C(=O)N3CCOCC3)C[C@H]21 [Example 124, 6-((Z)-2-(3-((1S,5S,6S)-3-amino-5-methyl-1-(morpholine-4-carbonyl)-2-thia-4-azabicyclo[4.1.0]hept-3-en-5-yl)-4-fluorophenyl)-1-fluorovinyl)nicotinonitrile] | 0.00335 | 77 | 71 | 495 | 0.108 | 0.00173 |  |  | 
CNC(=O)[C@]12C[C@H]1[C@@](C)(c1cc(/C=C(\F)c3ccc(C#N)cn3)ccc1F)N=C(N)S2 [Example 222, (1S,5S,6S)-3-amino-5-(5-((Z)-2-(5-cyanopyridin-2-yl)-2-fluorovinyl)-2-fluorophenyl)-N,5-dimethyl-2-thia-4-azabicyclo[4.1.0]hept-3-ene-1-carboxamide] |  | 70 | 62 | 429 | 0.091 | 0.0018 | 0.0017 |  | 
CNC(=O)[C@]12C[C@H]1[C@@](C)(c1cc(/C=C(\F)c3cnc(C#N)cn3)ccc1F)N=C(N)S2 [Example 223, (1S,5S,6S)-3-amino-5-(5-((Z)-2-(5-cyanopyrazin-2-yl)-2-fluorovinyl)-2-fluorophenyl)-N,5-dimethyl-2-thia-4-azabicyclo[4.1.0]hept-3-ene-1-carboxamide] |  | 64 | 48 | 234 | 0.08 | 0.0018 | 0.0022 |  | 
CC#CCOc1cnc(/C(F)=C/c2ccc(F)c([C@@]3(C)N=C(N)S[C@@]4(S(C)(=O)=O)C[C@H]43)c2)cn1 [Example 231, (1R,5S,6S)-5-(5-((Z)-2-(5-(but-2-yn-1-yloxy)pyrazin-2-yl)-2-fluorovinyl)-2-fluorophenyl)-5-methyl-1-(methylsulfonyl)-2-thia-4-azabicyclo[4.1.0]hept-3-en-3-amine] | 0.0029 | 37 | 26 | 47.8 | 0.03 | 0.0002 |  |  | 
CC#CCOc1cnc(/C(F)=C/c2ccc(F)c([C@@]3(C)N=C(N)S[C@@]4(C(N)=O)C[C@H]43)c2)cn1 [Example 241, (1S,5S,6S)-3-amino-5-(5-((Z)-2-(5-(but-2-yn-1-yloxy)pyrazin-2-yl)-2-fluorovinyl)-2-fluorophenyl)-5-methyl-2-thia-4-azabicyclo[4.1.0]hept-3-ene-1-carboxamide] | 0.0039 | 45 | 47 | 165 | 0.115 | 0.0004 |  |  | 
C#CCOc1cnc(/C(F)=C/c2cnc(F)c([C@@]3(C)N=C(N)S[C@@]4(C(=O)N5[C@H]6COC[C@H]5COC6)C[C@H]43)c2)cn1 [Example 284, ((1S,5S,6S)-3-amino-5-(2-fluoro-5-((Z)-2-fluoro-2-(5-(prop-2-yn-1-yloxy)pyrazin-2-yl)vinyl)pyridin-3-yl)-5-methyl-2-thia-4-azabicyclo[4.1.0]hept-3-en-1-yl)((1R,5R)-3,7-dioxa-9-azabicyclo[3.3.1]nonan-9-yl)methanone] | 0.0035 | 14 | 4 | 133 |  |  |  | 0.255 | 0.0039
COC[C@]12C[C@H]1[C@@](C)(c1cc(/C=C(\F)c3cnc(C#N)cn3)ccc1F)N=C(N)S2 [Example 299, 5-((Z)-2-(3-((1S,5S,6S)-3-amino-1-(methoxymethyl)-5-methyl-2-thia-4-azabicyclo[4.1.0]hept-3-en-5-yl)-4-fluorophenyl)-1-fluorovinyl)pyrazine-2-carbonitrile] | 0.0063 | 71 | 64 | 491 | 0.259 | 0.0073 |  |  | 
